From patent US20240285571A1, “METHODS OF TREATING BONE INFECTIONS” (MICROBION CORPORATION, priority 2020, published 2024)

Legend:
[1] = system: vancomycin-intermediate Staphylococcus aureus; assay: Broth microdilution MIC (Example 6); assay type: cell-based
Procedure: (§1) Test Compounds: The test agents BisEDT (MB-1-B3; Lot No. ED268-1-11-01), MB-2B, and MB-6 were stored at room temperature, in the dark, until assayed. The solvent and diluent for the test agents was DMSO (Sigma; St. Louis, MO; Lot No. SHBB9319V) and the prepared stock concentration was 6,464 μg/mL (101× the final test concentration).
(§2) Test compounds were evaluated at a concentration range of 0.06-64 μg/mL. For Gram-negative test isolates, amikacin and ceftazidime (alone and with clavulanate at a fixed concentration of 4 μg/mL) were evaluated over a concentration range of 0.06-64 μg/mL; meropenem and levofloxacin were evaluated over a concentration range of 0.008-8 μg/mL. For the testing of S. aureus, clindamycin, daptomycin, levofloxacin and vancomycin were evaluated at a concentration range of 0.008-8 μg/mL; linezolid was tested from 0.03-32 μg/mL.
(§3) Media: Cation-adjusted Mueller Hinton broth (CAMHB; BD; Lot No. 8190586) was used as the medium for testing (2, 3). For testing daptomycin, calcium was supplemented with […] Ca^2+, resulting in a final concentration of […] Ca^2+ (2, 3).
(§4) MIC Assay Procedure: MIC values were determined using a broth microdilution procedure described by CLSI (2, 3). Automated liquid handlers (Multidrop 384, Labsystems, Helsinki, Finland; Biomek 2000 and Biomek F X, Beckman Coulter, Fullerton CA) were used to conduct serial dilutions and liquid transfers.
(§5) To prepare the drug mother plates, which would provide the serial drug dilutions for the replicate daughter plates, the wells of columns 2 through 12 of standard 96-well microdilution plates (Costar 3795) were filled with 150 μl of the appropriate diluent for each row of drug. The test articles and comparator compounds (300 μl at 101× the highest concentration to be tested) were dispensed into the appropriate wells in column 1. The Biomek 2000 was then used to make 2-fold serial dilutions in the mother plates from column 1 through column 11. The wells of column 12 contained no drug and served as the organism growth control wells for the assay.
(§6) The daughter plates were loaded with 190 μL per well of RPMI using the Multidrop 384. The test panels were prepared on the Biomek FX instrument which transferred 2 μL of drug solution from each well of a mother plate to the corresponding well of each daughter plate in a single step.
(§7) A standardized inoculum of each test organism was prepared per CLSI methods to equal a 0.5 McFarland standard, followed by a dilution of 1:20. The plates were then inoculated with 10 μL of the diluted inoculum using the Biomek 2000 from low to high drug concentration resulting in a final concentration of approximately 5×10^5 CFU/mL.
(§8) Plates were stacked 3-4 high, covered with a lid on the top plate, placed into plastic bags, and incubated at 35° C. for 16 to 20 hr (vancomycin was read for S. aureus after 24 hr incubation time). The MIC was recorded as the lowest concentration of drug that inhibited visible growth of the organism.

[2] = system: relevant ATCC QC organisms; assay: Broth microdilution MIC, QC (Example 6); assay type: cell-based; conditions: S. aureus ATCC 29213
Procedure: as §1, §2
Organisms: The test organisms as shown in Tables 11-15 consisted of clinical isolates from the Micromyx (MMX) repository and reference strains from the American Type Culture Collection (ATCC; Manassas, VA), National Collection of Type Cultures (NCTC; Public Health England, Salisbury, UK), the Network on Antimicrobial Resistance in Staphylococcus aureus (NARSA; BEI Resources, Manassas, VA), and the Centers for Disease Control and Prevention (CDC; Atlanta, GA). The test organisms were maintained frozen at −80° C. Prior to testing, the isolates were cultured on Tryptic Soy Agar with 5% sheep blood (BAP; Becton Dickson [BD]/BBL; Sparks, MD; Lot Nos. 9080650 and 9108563) at 35° C. Relevant ATCC quality control (QC) organisms (Table 16) were included during testing in accordance with CLSI guidelines (3). Further details on the genetic characterization of the isolates where available can be found in Table 17.
as §3, §4, §5, §6, §7, §8

[3] = system: Streptococcus oralis; assay: MIC of baseline clinical isolates (Example 8); assay type: cell-based; conditions: Streptococcus oralis baseline isolates (N′ = 1), central laboratory, mITT
Procedure: (§9) Microbiology was assessed on Day 1 and at the time of any subsequent surgical procedure at the index site. Samples were collected from the infected bone site or involved tissue adjacent to any implant(s), swabs of the deep infection site, and the superficial tissue/wound closure/sinus tract site. Isolation and identification of aerobic and anerobic bacteria was conducted at a central microbiology laboratory (IHMA, Schaumburg, IL) and susceptibility of the isolates to MBN-101 (BisEDT) and comparator agents was performed per Clinical and Laboratory Standards Institute (CLSI). Parallel sets of samples were analyzed by the local clinical site laboratory to guide patient antibiotic treatment.

[4] = system: Corynebacterium resistens; assay: MIC of baseline clinical isolates (Example 8); assay type: cell-based; conditions: Corynebacterium resistens baseline isolates (N′ = 1), central laboratory, mITT
Procedure: as §9

[5] = system: Corynebacterium amycolatum; assay: MIC of baseline clinical isolates (Example 8); assay type: cell-based; conditions: Corynebacterium amycolatum baseline isolates (N′ = 1), central laboratory, mITT
Procedure: as §9

[6] = system: Dermabacter hominis; assay: MIC of baseline clinical isolates (Example 8); assay type: cell-based; conditions: Dermabacter hominis baseline isolates (N′ = 1), central laboratory, mITT
Procedure: as §9

[7] = system: Corynebacterium jeikeium; assay: MIC of baseline clinical isolates (Example 8); assay type: cell-based; conditions: Corynebacterium jeikeium baseline isolates (N′ = 2), central laboratory, mITT
Procedure: as §9

[8] = system: non-speciated Corynebacterium; assay: MIC of baseline clinical isolates (Example 8); assay type: cell-based; conditions: Corynebacterium non-speciated baseline isolates (N′ = 2), central laboratory, mITT
Procedure: as §9

[9] = system: relevant ATCC QC organisms; conditions: S. aureus ATCC 29213; CLSI established QC range; cited from earlier work
[10] = system: Staphylococcus hominis; assay: MIC of baseline clinical isolates (Example 8); assay type: cell-based; conditions: Staphylococcus hominis baseline isolates (N′ = 1), central laboratory, mITT
Procedure: (§10) Microbiology was assessed on Day 1 and at the time of any subsequent surgical procedure at the index site. Samples were collected from the infected bone site or involved tissue adjacent to any implant(s), swabs of the deep infection site, and the superficial tissue/wound closure/sinus tract site. […] Parallel sets of samples were analyzed by the local clinical site laboratory to guide patient antibiotic treatment.

[11] = system: Staphylococcus arlettae; assay: MIC of baseline clinical isolates (Example 8); assay type: cell-based; conditions: Staphylococcus arlettae baseline isolates (N′ = 1), central laboratory, mITT
Procedure: as §10

[12] = system: S. aureus (MRSA, MSSA); assay: MIC of baseline clinical isolates (Example 8); assay type: cell-based; conditions: Staphylococcus aureus, MRSA baseline isolates (N′ = 4), central laboratory, mITT
Procedure: as §10

[13] = system: Staphylococcus pasteuri; assay: MIC of baseline clinical isolates (Example 8); assay type: cell-based; conditions: Staphylococcus pasteuri baseline isolates (N′ = 1), central laboratory, mITT
Procedure: as §10

[14] = system: Staphylococcus lugdunensis; assay: MIC of baseline clinical isolates (Example 8); assay type: cell-based; conditions: Staphylococcus lugdunensis baseline isolates (N′ = 3), central laboratory, mITT
Procedure: as §10

[15] = system: S. epidermidis; assay: MIC of baseline clinical isolates (Example 8); assay type: cell-based; conditions: Staphylococcus epidermidis baseline isolates (N′ = 5), central laboratory, mITT
Procedure: as §10

[16] = system: Staphylococcus haemolyticus; assay: MIC of baseline clinical isolates (Example 8); assay type: cell-based; conditions: Staphylococcus haemolyticus baseline isolates (N′ = 1), central laboratory, mITT
Procedure: as §10

CC(=O)NC[C@H]1CN(c2ccc(N3CCOCC3)c(F)c2)C(=O)O1 [LZD]
MIC ([1]; S. aureus isolate NRS 1 (hVISA)): 1 µg/mL
MIC ([1]; S. aureus isolate NRS 2): 4 µg/mL
MIC ([1]; S. aureus isolate NRS 3): 1 µg/mL
MIC ([1]; S. aureus isolate NRS 4): 1 µg/mL
MIC ([1]; S. aureus isolate NRS 13): 2 µg/mL
MIC ([1]; S. aureus isolate NRS 18): 1 µg/mL
MIC ([1]; S. aureus isolate NRS 22): 1 µg/mL
MIC ([1]; S. aureus isolate NRS 24 (hVISA)): 2 µg/mL
MIC ([1]; S. aureus isolate NRS 27): 2 µg/mL
MIC [2]: 4 µg/mL
Mean MIC [3]: 1.00 µg/mL
n (% resistant) [3]: 0 (0.0) n (%)
Mean MIC [4]: 0.25 µg/mL
n (% resistant) [4]: 0 (0.0) n (%)
Mean MIC [5]: 0.12 µg/mL
n (% resistant) [5]: 0 (0.0) n (%)
Mean MIC [6]: 0.50 µg/mL
n (% resistant) [6]: 0 (0.0) n (%)
Mean MIC [7]: 0.38 µg/mL
n (% resistant) [7]: 0 (0.0) n (%)
Mean MIC [8]: 0.18 µg/mL
n (% resistant) [8]: 0 (0.0) n (%)
MIC QC range (in parentheses) [9]: (1-4) μg/mL
Mean MIC [10]: 0.50 µg/mL
n (% resistant) [10]: 0 (0.0) n (%)
Mean MIC [11]: 2.00 µg/mL
n (% resistant) [11]: 0 (0.0) n (%)
Mean MIC [12]: 1.25 µg/mL
n (% resistant) [12]: 0 (0.0) n (%)
Mean MIC [13]: 1.00 µg/mL
n (% resistant) [13]: 0 (0.0) n (%)
Mean MIC [14]: 0.83 µg/mL
n (% resistant) [14]: 0 (0.0) n (%)
Mean MIC [15]: 0.80 µg/mL
n (% resistant) [15]: 0 (0.0) n (%)
Mean MIC [16]: 1.00 µg/mL
n (% resistant) [16]: 0 (0.0) n (%)
